{"source": "patent US20160368943A1", "about": "“SUBSTITUTED PURINE COMPOUNDS” (EPIZYME, INC., priority 2013, published 2016)", "key": {"[1]": {"assay": "Liver microsome stability, dog", "type": "in vitro ADME", "protocol": "The final incubation volume was 50 μL. Control incubations were included for each species where 0.1 M phosphate buffer pH 7.4 was added instead of NADPH (minus NADPH). Two control compounds were included for each species. […] The control (minus NADPH) was incubated for 45 minutes only. The reactions were stopped by transferring 25 μL of incubate to 50 μL methanol at the appropriate time points. The incubation plates were centrifuged at 2,500 rpm for 20 minutes at 4° C. to aid protein precipitation. Experimental half-lives were transformed to the corresponding intrinsic clearance values and subsequently scaled to predicted in vivo clearance values, using the well-stirred model as previously described (Houston, Biochemical Pharmacology 47(9): 1469-1479, 1994; Obach, Drug Metabolism and Disposition 27(11): 1350-1359, 1999), with appropriate species-specific scaling factors (Barter et al., Current Drug Metabolism 8(1): 33-45, 2007)."}, "[2]": {"assay": "Hepatocyte stability, mouse", "type": "in vitro ADME, CD-1 mouse", "protocol": "Human, Beagle dog, Sprague-Dawley rat, and CD-1 mouse cryopreserved hepatocytes were obtained from XenoTech and stored at −150° C. until use. The hepatocytes were thawed and prepared according to the vendor's instructions, pooled into Krebs Henseleit buffer (KHB, pH 7.4), and kept on ice prior to initiating an experiment. […] The reaction mixture was incubated in a shaking water bath at 37° C. Aliquots of the incubation solutions were sampled at 0, 15, 30, 60, and 120 minutes. The reaction was immediately terminated by the addition of three volumes of ice-cold acetonitrile containing 0.1% formic acid and internal standards. After centrifugation at 1640×g for 10 minutes, the supernatants were transferred into HPLC vials, and the test compound was analyzed by LC-MS/MS. Positive controls, testosterone (20 μM) and 7-hydroxycoumarin (100 μM), were performed in parallel to confirm the enzyme activities of the hepatocytes used.\nExperimental half-lives were transformed to the corresponding intrinsic clearance values and subsequently scaled to predicted in vivo clearance values, using the well-stirred model as previously described (Houston, Biochemical Pharmacology 47(9): 1469-1479, 1994; Obach, Drug Metabolism and Disposition 27(11): 1350-1359, 1999), with appropriate species-specific scaling factors (Barter et al., Current Drug Metabolism 8(1): 33-45, 2007)."}, "[3]": {"assay": "Plasma protein binding by equilibrium dialysis, mouse", "type": "in vitro ADME, CD-1 mouse", "conditions": "male, CD-1, pH 7.4, read-out: Plasma free fraction", "protocol": "(§1) Plasma protein binding was assessed by equilibrium dialysis, utilizing the HT-dialysis cell format with a cellulose semi permeable membrane (molecular weight cut off of 5000 Da). Plasma was warmed to 37° C. and adjusted to pH 7.4 before use. Male Sprague-Dawley rat, male Beagle dog, male CD-1 mouse and mixed sex human plasma was used for the studies. A 5 μM test compound solution was prepared in isotonic phosphate buffer and rat, dog, mouse and human plasma (final DMSO concentration of 0.5%). The plasma-containing solution was introduced to one side of the membrane, and the plasma-free on the other. Incubations were performed for 2-16 hours in duplicate in order to allow the compound to reach equilibrium. Haloperidol was included as the control compound for each species. At the end of the equilibration time the cells were emptied. Following protein precipitation, the samples were centrifuged and analyzed by LC-MS/MS. The samples from the protein containing compartment were quantified using calibration standards prepared in plasma and the protein free compartments were quantified using calibration standards prepared in dialysis buffer."}, "[4]": {"assay": "Plasma protein binding by equilibrium dialysis, human", "type": "in vitro ADME", "conditions": "both sexes, pH 7.4, read-out: Plasma free fraction", "protocol": "as §1"}, "Plasma stability, mouse": {"assay": "Plasma stability, mouse", "type": "in vitro ADME, CD-1 mouse", "conditions": "CD-1, pooled plasma, 37° C., read-out: Half-life in ex vivo blood plasma", "text": "Samples were quenched in methanol and analyzed by LC-MS/MS analysis."}, "[5]": {"assay": "Prediction of human pharmacokinetics by interspecies scaling", "text": "PK endpoints of CL and VDss in mouse, rat and dog were used to scale to the corresponding parameters in human using a variety of allometric and interspecies scaling approaches as previously reported (Boxenbaum, Journal of Pharmacokinetics and Biopharmaceutics 10(2): 201-227, 1982; Jones et al., Journal of Pharmaceutical Sciences 100(10): 4074-4089, 2011; Lombardo et al., J Clin Pharmacol 53(2): 178-191, 2013a; Lombardo et al., J Clin Pharmacol 53(2): 167-177, 2013b; Mahmood & Balian, Xenobiotica 26(9): 887-895, 1996; Ring et al., Journal of Pharmaceutical Sciences 100(10): 4090-4110, 2011; Tang & Mayersohn, Journal of Pharmaceutical Sciences 95(8): 1783-1799, 2006; Tang & Mayersohn, Drug Metabolism and Disposition 33(9): 1297-1303, 2005; Vuppugalla et al., Journal of Pharmaceutical Sciences 100(10): 4111-4126, 2011). The likely predictive accuracy of each method was assessed based on visual inspection of the data fit, as well as values such as the R^2 and the allometric exponent, where appropriate."}, "[6]": {"assay": "Liver microsomes supplemented with UDPGA and alamethacin (glucuronidation)", "type": "in vitro ADME"}}, "note": "“And” between values parts separate entries of the source, which are not always exact repeats. Identical values can stand only once.", "data": [{"smiles": "CC(C)N(C[C@H]1O[C@@H](n2cnc3c(N)ncnc32)[C@H](O)[C@@H]1O)[C@H]1C[C@@H](CCc2nc3cc(C(C)(C)C)ccc3[nH]2)C1", "note": "[Compound A, (2R,3R,4S,5R)-2-(6-amino-9H-purin-9-yl)-5-((((1r,3S)-3-(2-(5-(tert-butyl)-1H-benzo[d]imidazol-2-yl)ethyl)cyclobutyl)(isopropyl)amino)methyl)tetrahydrofuran-3,4-diol]", "values": [{"measurement": "microsomal CLint at 3 μM", "setting": "[1]; liver microsomes, pH 7.4, NADPH, 3 μM", "value": 39, "unit": "µL/min/mg"}, {"measurement": "Scaled Hepatic CL from liver microsomes", "setting": "[1]; well-stirred model", "value": 20, "unit": "mL/min/kg"}, {"measurement": "hepatocyte CLint at 3 μM", "setting": "[2]; CD-1, mouse, cryopreserved hepatocytes in suspension, pH 7.4, mouse, 3 μM", "value": "< 4", "unit": "µL/min/1e6 cells"}, {"measurement": "Scaled Hepatic CL from hepatocytes", "setting": "[2]; mouse", "value": 26, "unit": "mL/min/kg"}, {"measurement": "Hepatocyte CLint", "setting": "[2]; mouse, 3 μM", "value": 3.5, "unit": "uL/min/million cells"}, {"measurement": "fraction unbound at 5 μM", "setting": "[3]", "value": 0.138}, {"measurement": "fraction unbound at 5 μM", "setting": "[4]", "value": 0.125}, {"measurement": "half-life at 1 μM", "setting": "Plasma stability, mouse", "value": "> 2", "unit": "h"}, {"measurement": "Predicted human VDss", "setting": "[5]; Consensus prediction", "value": "2.8 L/kg and 2.76 L/kg"}, {"measurement": "Predicted human CL", "setting": "[5]; Consensus prediction (excludes simple allometry)", "value": 6.5, "unit": "mL/min/kg"}, {"measurement": "Predicted human CL", "setting": "[5]; MLR rat-dog", "value": "11 mL/min/kg and 10.7 mL/min/kg"}, {"measurement": "Predicted human VDss", "setting": "[5]; Oie-Tozer equation, rat and dog data", "value": 0.97, "unit": "L/kg"}, {"measurement": "Predicted human CL", "setting": "[5]; Simple allometry", "value": 13.3, "unit": "mL/min/kg"}, {"measurement": "Predicted human VDss", "setting": "[5]; Simple allometry", "value": 2.71, "unit": "L/kg"}, {"measurement": "allometric exponent for CL", "setting": "[5]; Simple allometry", "value": 0.76}, {"measurement": "Predicted human VDss", "setting": "[5]; Simple allometry - unbound", "value": 1.16, "unit": "L/kg"}, {"measurement": "Predicted human VDss", "setting": "[5]; Wajima equation, rat and dog data", "value": 6.2, "unit": "L/kg"}, {"measurement": "human CL estimates", "setting": "[5]; across multiple, diverse scaling approaches", "value": "6 to 8", "unit": "mL/min/kg"}, {"measurement": "Predicted human VDss", "setting": "[5]; simple allometry (total and unbound) and Oie-Tozer equation", "value": "1 to 3", "unit": "L/kg"}, {"measurement": "Predicted human VDss", "setting": "[5]; simple allometry using total and unbound terms", "value": "1.2 to 2.7", "unit": "L/kg"}, {"measurement": "turnover (glucuronidation)", "setting": "[6]", "value": "no turnover was observed"}]}]}
